From PubChem BioAssay (NCI)
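Abbreviation: GI50, concentration required for 50% inhibition of growth. TGI denotes the concentration required for complete inhibition of growth.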

How the values were obtained:
Assay in all cases: inhibition of tumour cell growth, NCI panel, 384-well format
TK-10 renal = system: TK-10 renal
UO-31 renal = system: UO-31 renal
M14 melanoma = system: M14 melanoma
SK-MEL-28 melanoma = system: SK-MEL-28 melanoma
SF-268 CNS = system: SF-268 CNS
KM12 colon = system: KM12 colon
SW-620 colon = system: SW-620 colon
MDA-MB-231 breast = system: MDA-MB-231 breast
MCF7 breast = system: MCF7 breast
NCI-H226 lung = system: NCI-H226 lung
HCT-116 colon = system: HCT-116 colon
U251 glioblastoma = system: U251 glioblastoma
CAKI-1 renal = system: CAKI-1 renal
UACC-62 melanoma = system: UACC-62 melanoma
MALME-3M melanoma = system: MALME-3M melanoma
UACC-257 melanoma = system: UACC-257 melanoma
MOLT-4 leukemia = system: MOLT-4 leukemia
HCC-2998 colon = system: HCC-2998 colon
ACHN renal = system: ACHN renal
T-47D breast = system: T-47D breast
SNB-75 CNS = system: SNB-75 CNS
K-562 leukemia = system: K-562 leukemia
RPMI-8226 leukemia = system: RPMI-8226 leukemia
MDA-MB-435 melanoma = system: MDA-MB-435 melanoma
NCI-H23 lung = system: NCI-H23 lung
HOP-62 NSCLC = system: HOP-62 NSCLC
SK-MEL-5 melanoma = system: SK-MEL-5 melanoma
NCI-H522 lung = system: NCI-H522 lung
OVCAR-4 ovarian = system: OVCAR-4 ovarian
DU-145 prostate = system: DU-145 prostate
SF-295 CNS = system: SF-295 CNS
IGROV1 ovarian = system: IGROV1 ovarian
BT-549 breast = system: BT-549 breast
EKVX NSCLC = system: EKVX NSCLC
SR leukemia = system: SR leukemia
HCT-15 colon = system: HCT-15 colon
NCI/ADR-RES ovarian = system: NCI/ADR-RES ovarian
HT29 colon = system: HT29 colon
SK-OV-3 ovarian = system: SK-OV-3 ovarian
NCI-H460 NSCLC = system: NCI-H460 NSCLC
PC-3 prostate = system: PC-3 prostate
RXF 393 renal = system: RXF 393 renal
MDA-MB-468 breast = system: MDA-MB-468 breast
786-0 renal = system: 786-0 renal
SN12C renal = system: SN12C renal
CCRF-CEM leukemia = system: CCRF-CEM leukemia
HOP-92 NSCLC = system: HOP-92 NSCLC
HL-60(TB) leukemia = system: HL-60(TB) leukemia
OVCAR-5 ovarian = system: OVCAR-5 ovarian
COLO 205 colon = system: COLO 205 colon
A549 NSCLC = system: A549 NSCLC
OVCAR-8 ovarian = system: OVCAR-8 ovarian
LOX IMVI melanoma = system: LOX IMVI melanoma
SF-539 CNS = system: SF-539 CNS
A498 renal = system: A498 renal
NCI-H322M lung = system: NCI-H322M lung
SNB-19 CNS = system: SNB-19 CNS
OVCAR-3 ovarian = system: OVCAR-3 ovarian
SK-MEL-2 melanoma = system: SK-MEL-2 melanoma

C=CC(=O)N1CC[C@@H](Oc2nc(Nc3ccc(N4CCC(N5CCN(C)CC5)CC4)cc3)c(C(N)=O)nc2CC)C1
GI50 (TK-10 renal): > 100 µM
TGI (TK-10 renal): > 100 µM
GI50 (UO-31 renal): > 100 µM
TGI (UO-31 renal): > 100 µM
GI50 (M14 melanoma): > 100 µM
TGI (M14 melanoma): > 100 µM
GI50 (SK-MEL-28 melanoma): > 100 µM
TGI (SK-MEL-28 melanoma): > 100 µM
GI50 (SF-268 CNS): > 100 µM
TGI (SF-268 CNS): > 100 µM
GI50 (KM12 colon): > 100 µM
TGI (KM12 colon): > 100 µM
GI50 (SW-620 colon): > 100 µM
TGI (SW-620 colon): > 100 µM
GI50 (MDA-MB-231 breast): > 100 µM
TGI (MDA-MB-231 breast): > 100 µM
GI50 (MCF7 breast): > 100 µM
TGI (MCF7 breast): > 100 µM
GI50 (NCI-H226 lung): > 100 µM
TGI (NCI-H226 lung): > 100 µM
GI50 (HCT-116 colon): > 100 µM
TGI (HCT-116 colon): > 100 µM
GI50 (U251 glioblastoma): > 100 µM
TGI (U251 glioblastoma): > 100 µM
GI50 (CAKI-1 renal): > 100 µM
TGI (CAKI-1 renal): > 100 µM
GI50 (UACC-62 melanoma): > 100 µM
TGI (UACC-62 melanoma): > 100 µM
GI50 (MALME-3M melanoma): > 100 µM
TGI (MALME-3M melanoma): > 100 µM
GI50 (UACC-257 melanoma): > 100 µM
TGI (UACC-257 melanoma): > 100 µM
GI50 (MOLT-4 leukemia): > 100 µM
TGI (MOLT-4 leukemia): > 100 µM
GI50 (HCC-2998 colon): > 100 µM
TGI (HCC-2998 colon): > 100 µM
GI50 (ACHN renal): > 100 µM
TGI (ACHN renal): > 100 µM
GI50 (T-47D breast): > 100 µM
TGI (T-47D breast): > 100 µM
GI50 (SNB-75 CNS): > 100 µM
TGI (SNB-75 CNS): > 100 µM
GI50 (K-562 leukemia): > 88.9 µM
TGI (K-562 leukemia): > 100 µM
GI50 (RPMI-8226 leukemia): > 100 µM
TGI (RPMI-8226 leukemia): > 100 µM
GI50 (MDA-MB-435 melanoma): > 100 µM
TGI (MDA-MB-435 melanoma): > 100 µM
GI50 (NCI-H23 lung): > 100 µM
TGI (NCI-H23 lung): > 100 µM
GI50 (HOP-62 NSCLC): > 100 µM
TGI (HOP-62 NSCLC): > 100 µM
GI50 (SK-MEL-5 melanoma): > 100 µM
TGI (SK-MEL-5 melanoma): > 100 µM
GI50 (NCI-H522 lung): > 100 µM
TGI (NCI-H522 lung): > 100 µM
GI50 (OVCAR-4 ovarian): > 100 µM
TGI (OVCAR-4 ovarian): > 100 µM
GI50 (DU-145 prostate): > 100 µM
TGI (DU-145 prostate): > 100 µM
GI50 (SF-295 CNS): > 100 µM
TGI (SF-295 CNS): > 100 µM
GI50 (IGROV1 ovarian): > 100 µM
TGI (IGROV1 ovarian): > 100 µM
GI50 (BT-549 breast): > 100 µM
TGI (BT-549 breast): > 100 µM
GI50 (EKVX NSCLC): > 100 µM
TGI (EKVX NSCLC): > 100 µM
GI50 (SR leukemia): > 87.9 µM
TGI (SR leukemia): > 100 µM
GI50 (HCT-15 colon): > 100 µM
TGI (HCT-15 colon): > 100 µM
GI50 (NCI/ADR-RES ovarian): > 100 µM
TGI (NCI/ADR-RES ovarian): > 100 µM
GI50 (HT29 colon): > 100 µM
TGI (HT29 colon): > 100 µM
GI50 (SK-OV-3 ovarian): > 100 µM
TGI (SK-OV-3 ovarian): > 100 µM
GI50 (NCI-H460 NSCLC): > 100 µM
TGI (NCI-H460 NSCLC): > 100 µM
GI50 (PC-3 prostate): > 100 µM
TGI (PC-3 prostate): > 100 µM
GI50 (RXF 393 renal): > 100 µM
TGI (RXF 393 renal): > 100 µM
GI50 (MDA-MB-468 breast): > 100 µM
TGI (MDA-MB-468 breast): > 100 µM
GI50 ([…]-0 renal): > 100 µM
TGI (786-0 renal): > 100 µM
GI50 (SN12C renal): > 100 µM
TGI (SN12C renal): > 100 µM
GI50 (CCRF-CEM leukemia): > 100 µM
TGI (CCRF-CEM leukemia): > 100 µM
GI50 (HOP-92 NSCLC): > 100 µM
TGI (HOP-92 NSCLC): > 100 µM
GI50 (HL-60(TB) leukemia): > 100 µM
TGI (HL-60(TB) leukemia): > 100 µM
GI50 (OVCAR-5 ovarian): > 100 µM
TGI (OVCAR-5 ovarian): > 100 µM
GI50 (COLO 205 colon): > 100 µM
TGI (COLO 205 colon): > 100 µM
GI50 (A549 NSCLC): > 100 µM
TGI (A549 NSCLC): > 100 µM
GI50 (OVCAR-8 ovarian): > 100 µM
TGI (OVCAR-8 ovarian): > 100 µM
GI50 (LOX IMVI melanoma): > 100 µM
TGI (LOX IMVI melanoma): > 100 µM
GI50 (SF-539 CNS): > 100 µM
TGI (SF-539 CNS): > 100 µM
GI50 (A498 renal): > 100 µM
TGI (A498 renal): > 100 µM
GI50 (NCI-H322M lung): > 100 µM
TGI (NCI-H322M lung): > 100 µM
GI50 (SNB-19 CNS): > 100 µM
TGI (SNB-19 CNS): > 100 µM
GI50 (OVCAR-3 ovarian): > 100 µM
TGI (OVCAR-3 ovarian): > 100 µM
GI50 (SK-MEL-2 melanoma): > 100 µM
TGI (SK-MEL-2 melanoma): > 100 µM
